Experimental data from patent EP0184738A2, “Imidazole derivatives, medicaments containing these compounds, and process for their preparation” (Dr. Karl Thomae GmbH, priority 1984, dated 1986).

Test system: despinalisierten Meerschweinchen
Assay: Determination of the positive inotropic effect in despinalised guinea pigs
Format: in vivo
Conditions: 1 mg/kg i.v. (Vena jugularis), mean of 3 despinalised guinea pigs, left ventricular pressure
Excerpt: Bestimmung der positiv inotropen Wirkung an despinalisierten Meerschweinchen
Die Untersuchungen wurden an despinalisierten Meerschweinchen durchgeführt. Die Tiere wurden mit 50 % 02 + 50 % N2 beatmet. Der arterielle Blutdruck wurde in der rechten Arteria Carotis mit einem Bell and Howell Druckwandler (4-327-I) gemessen. Für die Erfassung der positiv inotropen Wirkung wurde mit einem Kathetertipmanometer (Millar PR-249) der Druck in dem linken Ventrikel (LV) gemessen. Mittels eines Differenzierers wurde LV-dp/dtmax gewonnen. Die zu untersuchenden Substanzen wurden in eine Vena jugularis injiziert. Als Lösungsdmittel diente 0,9 % NaCl+Polydiol 200 (1:1).
Jede Substanz wurde an 3 Meerschweinchen überprüft. Die Dosen waren 0,1 - 3 mg/kg i.v.. Die nachfolgende Tabelle enthält die Mittelwerte bei 1 mg/kg i.v..
Die neuen Verbindungen sind gut verträglich, so konnte bei der Untersuchung der Substanzen A bis D bis zu einer Dosis von 3 mg/kg i.v. keinerlei herztoxische Wirkungen bzw. Kreislaufschäden beobachtet werden.

Structure (SMILES)	Zunahme in LV-dp/dtmax [%]
CCCOc1cc2ccccc2cc1-c1nc2cnc(Cl)nc2[nH]1 [Substanz D, 2-Chlor-8-(3-n-propoxy-naphth-2-yl)-purin]	27
O=c1ccc2[nH]c(-c3cc4ccccc4cc3Cl)nc2[nH]1 [Substanz B, 2-(3-Chlor-naphth-2-yl)-lH-imidazo[4,5-b]pyridin-5-on]	30
O=c1[nH][nH]cc2nc(-c3ccc4ccccc4c3)nc1-2 [Substanz A, 2-(Naphth-2-yl)-5H-imidazo[4,5-d]pyridazin-4-on]	28
COc1ncc2[nH]c(-c3ccc4ccccc4c3)nc2n1 [Substanz C, 2-Methoxy-8-(naphth-2-yl)-purin]	33
